Our source for the inhibition values is patent US12459899B2, “Isoquinolinone derivatives, method for preparing the same, and pharmaceutical composition for preventing or treating poly(ADP-ribose) polymerase-1-related diseases, comprising the same as active ingredient” (DIGMBIO. INC., priority 2019, dated 2025).

Sequence of PARP-1 (poly[ADP-ribose] polymerase 1) enzyme (P09874 whole entry): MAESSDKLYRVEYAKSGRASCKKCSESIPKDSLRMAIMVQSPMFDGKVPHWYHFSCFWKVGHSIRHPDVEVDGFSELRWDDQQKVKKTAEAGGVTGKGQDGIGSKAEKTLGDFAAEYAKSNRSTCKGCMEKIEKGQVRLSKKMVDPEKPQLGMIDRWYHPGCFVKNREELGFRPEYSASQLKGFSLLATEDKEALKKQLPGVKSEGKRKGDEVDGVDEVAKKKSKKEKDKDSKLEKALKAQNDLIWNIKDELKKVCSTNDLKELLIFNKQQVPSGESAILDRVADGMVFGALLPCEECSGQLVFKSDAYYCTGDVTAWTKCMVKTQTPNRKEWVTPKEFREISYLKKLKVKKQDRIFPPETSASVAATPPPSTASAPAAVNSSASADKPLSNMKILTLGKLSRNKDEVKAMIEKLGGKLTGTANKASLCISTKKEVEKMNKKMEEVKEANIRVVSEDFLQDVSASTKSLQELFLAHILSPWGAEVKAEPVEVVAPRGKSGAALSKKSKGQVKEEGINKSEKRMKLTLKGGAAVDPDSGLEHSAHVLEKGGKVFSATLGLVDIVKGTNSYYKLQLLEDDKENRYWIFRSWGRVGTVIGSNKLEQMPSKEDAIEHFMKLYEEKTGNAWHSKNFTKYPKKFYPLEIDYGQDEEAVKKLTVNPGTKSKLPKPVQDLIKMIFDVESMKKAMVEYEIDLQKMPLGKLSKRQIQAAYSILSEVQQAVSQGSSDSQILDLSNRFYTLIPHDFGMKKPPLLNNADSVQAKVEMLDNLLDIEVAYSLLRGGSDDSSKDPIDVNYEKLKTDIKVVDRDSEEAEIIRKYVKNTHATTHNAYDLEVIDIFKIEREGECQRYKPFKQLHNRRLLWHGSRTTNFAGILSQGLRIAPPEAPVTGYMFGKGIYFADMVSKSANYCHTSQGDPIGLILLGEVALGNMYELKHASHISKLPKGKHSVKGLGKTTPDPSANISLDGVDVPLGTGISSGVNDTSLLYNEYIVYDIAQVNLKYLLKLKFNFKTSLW

In this assay the target is PARP-1 (poly[ADP-ribose] polymerase 1) enzyme (Homo sapiens (Human), UniProt P09874). The assay can be described thus: PARP-1 (poly[ADP-ribose] polymerase 1) enzyme inhibitory ability, Trevigen assay kit. Type of assay: biochemical. Particulars: 1 nM compound; read-out: PAR P-1 Inhibitory ability at 1 nM. The method in brief:
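After the 1 hour PARP reaction, wells were washed with PBS containing 0.1% triton X-100 and then PBS. Strep-HRP (50 μL) was bound for 1 hour, wells washed again, and 50 μL of TACS-sapphire substrate developed 15 minutes in the dark. Reactions were stopped with 50 μL of 5% phosphoric acid and absorbance read at 450 nm on a Victor3 reader.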
`N#Cc1ccc(N2CC3CCC(C2)N3CCCc2cc3ccc(F)cc3c(=O)[nH]2)nc1` [Example 204, 6-(8-(3-(7-fluoro-1-oxo-1,2-dihydroisoquinolin-3-yl)propyl)-3,8-diazabicyclo[3.2.1]octan-3-yl)nicotinonitrile]: the inhibition at 0.001 µM was in the range of 50 to 80%.
In the case of `Cc1cc(F)cc2c(=O)[nH]c(CCCN3C4CCC3CN(c3ccc(C#N)cn3)C4)cc12` [Example 205, 6-(8-(3-(7-fluoro-5-methyl-1-oxo-1,2-dihydroisoquinolin-3-yl)propyl)-3,8-diazabicyclo[3.2.1]octan-3-yl)nicotinonitrile], the inhibition at 0.001 µM fell in the range of 50 to 80%.
For `N#Cc1ccc(N2CC3CCC(C2)N3C(=O)CCc2cc3cccc(F)c3c(=O)[nH]2)nc1` [Example 206, 6-(8-(3-(8-fluoro-1-oxo-1,2-dihydroisoquinolin-3-yl)propanoyl)-3,8-diazabicyclo[3.2.1]octan-3-yl)nicotinonitrile] the value was less than 50%.
In the case of `Cc1ccc(F)c2c(=O)[nH]c(CCC(=O)N3C4CCC3CN(c3ccc(C#N)cn3)C4)cc12` [Example 207, 6-(8-(3-(8-fluoro-5-methyl-1-oxo-1,2-dihydroisoquinolin-3-yl)propanoyl)-3,8-diazabicyclo[3.2.1]octan-3-yl)nicotinonitrile], the inhibition at 0.001 µM is less than 50%.
For `Cc1ccc(F)c2c(=O)[nH]c(CCC(=O)N3C4CCC3CN(c3ccc(F)cc3)C4)cc12` [Example 208, 8-fluoro-3-(3-(3-(4-fluorophenyl)-3,8-diazabicyclo[3.2.1]octan-8-yl)-3-oxopropyl)-5-methylisoquinolin-1(2H)-one], the inhibition at 0.001 µM was less than 50%.
For `Cc1ccc(F)c2c(=O)[nH]c(CCC(=O)N3C4CCC3CN(c3ccc(Cl)cc3)C4)cc12` [Example 210, 3-(3-(3-(4-chlorophenyl)-3,8-diazabicyclo[3.2.1]octan-8-yl)-3-oxopropyl)-8-fluoro-5-methylisoquinolin-1(2H)-one] the value was less than 50%.
For `Cc1ccc(F)c2c(=O)[nH]c(CCC(=O)N3C4CCC3CN(c3ccc(F)nc3)C4)cc12` [Example 211, 8-fluoro-3-(3-(3-(6-fluoropyridin-3-yl)-3,8-diazabicyclo[3.2.1]octan-8-yl)-3-oxopropyl)-5-methylisoquinolin-1(2H)-one] the value was less than 50%.
For `Cc1ccc(F)c2c(=O)[nH]c(CCC(=O)N3C4CCC3CN(c3ccc(F)cn3)C4)cc12` [Example 212, 8-fluoro-3-(3-(3-(5-fluoropyridin-2-yl)-3,8-diazabicyclo[3.2.1]octan-8-yl)-3-oxopropyl)-5-methylisoquinolin-1(2H)-one] the value was less than 50%; for `Cc1cc(F)cc2c(=O)[nH]c(CCC(=O)N3C4CCC3CN(c3ccc(C#N)cc3)C4)cc12` [Example 213, 4-(8-(3-(7-fluoro-5-methyl-1-oxo-1,2-dihydroisoquinolin-3-yl)propanoyl)-3,8-diazabicyclo[3.2.1]octan-3-yl)benzonitrile], less than 50%.
In the case of `Cc1cc(F)cc2c(=O)[nH]c(CCC(=O)N3C4CCC3CN(c3ccc(C#N)cn3)C4)cc12` [Example 214], the inhibition at 0.001 µM is less than 50%.
With `Cc1cc(F)cc2c(=O)[nH]c(CCC(=O)N3C4CCC3CN(c3ccc(F)cc3)C4)cc12` [Example 215, 7-fluoro-3-(3-(3-(4-fluorophenyl)-3,8-diazabicyclo[3.2.1]octan-8-yl)-3-oxopropyl)-5-methylisoquinolin-1(2H)-one], the inhibition at 0.001 µM is less than 50%.
For `Cc1cc(F)cc2c(=O)[nH]c(CCC(=O)N3C4CCC3CN(c3ccc(Cl)cc3)C4)cc12` [Example 216, 3-(3-(3-(4-chlorophenyl)-3,8-diazabicyclo[3.2.1]octan-8-yl)-3-oxopropyl)-7-fluoro-5-methylisoquinolin-1(2H)-one], the inhibition at 0.001 µM is less than 50%.
In the case of `Cc1cc(F)cc2c(=O)[nH]c(CCC(=O)N3C4CCC3CN(c3ccc(F)nc3)C4)cc12` [Example 217, 7-fluoro-3-(3-(3-(6-fluoropyridin-3-yl)-3,8-diazabicyclo[3.2.1]octan-8-yl)-3-oxopropyl)-5-methylisoquinolin-1(2H)-one], the inhibition at 0.001 µM was less than 50%.
`Cc1cc(F)cc2c(=O)[nH]c(CCC(=O)N3C4CCC3CN(c3ccc(F)cn3)C4)cc12` [Example 219, 7-fluoro-3-(3-(3-(5-fluoropyridin-2-yl)-3,8-diazabicyclo[3.2.1]octan-8-yl)-3-oxopropyl)-5-methylisoquinolin-1(2H)-one]: the inhibition at 0.001 µM is less than 50%.
Consider `N#Cc1ccc(N2CC3CCC(C2)N3C(=O)CCc2cc3ccc(F)cc3c(=O)[nH]2)nc1` [Example 220, 6-(8-(3-(7-fluoro-1-oxo-1,2-dihydroisoquinolin-3-yl)propanoyl)3,8-diazabicyclo[3.2.1]octan-3-yl)nicotinonitrile], for which the inhibition at 0.001 µM was less than 50%.
Regarding `N#Cc1ccc(N2CCN(CCCc3cc4ncccc4c(=O)[nH]3)CC2)cc1` [Example 221, 4-(4-(3-(5-oxo-5,6-dihydro-1,6-naphthyridin-7-yl)propyl)piperazin-1-yl)benzonitrile], the inhibition at 0.001 µM was 50 to 80%.
Turning to `N#Cc1ccc(N2CCN(CCCc3cc4ncccc4c(=O)[nH]3)CC2)nc1` [Example 222, 6-(4-(3-(5-oxo-5,6-dihydro-1,6-naphthyridin-7-yl)propyl)piperazin-1-yl)nicotinonitrile], the inhibition at 0.001 µM is less than 50%.
For the compound `O=c1[nH]c(CCCN2CCN(c3ccc(F)cc3)CC2)cc2ncccc12` [Example 223, 7-(3-(4-(4-fluorophenyl)piperazin-1-yl)propyl)-1,6-naphthyridin-5(6H)-one], the inhibition at 0.001 µM is less than 50%.
The same measure for `O=c1[nH]c(CCCN2CCN(c3cccc(F)c3)CC2)cc2ncccc12` [Example 224, 7-(3-(4-(3-fluorophenyl)piperazin-1-yl)propyl)-1,6-naphthyridin-5(6H)-one]: less than 50%; for `N#Cc1ccc(N2CC3CCC(C2)N3CCCc2cc3ncccc3c(=O)[nH]2)cc1` [Example 225, 4-(8-(3-(5-oxo-5,6-dihydro-1,6-naphthyridin-7-yl)propyl)-3,8-diazabicyclo[3.2.1]octan-3-yl)benzonitrile]: more than 80%; for `N#Cc1ccc(N2CCN(CCCc3cc4ncccc4c(=O)[nH]3)CC2)cn1` [Example 226, 5-(4-(3-(5-oxo-5,6-dihydro-1,6-naphthyridin-7-yl)propyl)piperazin-1-yl)picolinonitrile]: less than 50%.
`O=c1[nH]c(CCCN2CCN(c3ccnc(F)c3)CC2)cc2ncccc12` [Example 227, 7-(3-(4-(2-fluoropyridin-4-yl)piperazin-1-yl)propyl)-1,6-naphthyridin-5(6H)-one]: the inhibition at 0.001 µM is less than 50%.
Turning to `N#Cc1ccc(N2CC3CCC(C2)N3CCCc2cc3ncccc3c(=O)[nH]2)cn1` [Example 229, 5-(8-(3-(5-oxo-5,6-dihydro-1,6-naphthyridin-7-yl)propyl)-3,8-diazabicyclo[3.2.1]octan-3-yl)picolinonitrile], the inhibition at 0.001 µM is less than 50%.
For `O=c1[nH]c(CCCN2C3CCC2CN(c2ccc(F)cc2)C3)cc2ncccc12` [Example 230] the value was less than 50%.
On to `O=c1[nH]c(CCCN2C3CCC2CN(c2ccc(F)cn2)C3)cc2ncccc12` [Example 231, 7-(3-(3-(5-fluoropyridin-2-yl)-3,8-diazabicyclo[3.2.1]octan-8-yl)propyl)-1,6-naphthyridin-5(6H)-one], for which the inhibition at 0.001 µM was less than 50%.
For `N#Cc1ccc(N2CC3CCC(C2)N3CCCc2cc3ncccc3c(=O)[nH]2)nc1` [Example 232, 6-(8-(3-(5-oxo-5,6-dihydro-1,6-naphthyridin-7-yl)propyl)-3,8-diazabicyclo[3.2.1]octan-3-yl)nicotinonitrile] the value was less than 50%.
The same measure for `O=c1[nH]c(CCCN2C3CCC2CN(c2ccc(F)nc2)C3)cc2ncccc12` [Example 233, 7-(3-(3-(6-fluoropyridin-3-yl)-3,8-diazabicyclo[3.2.1]octan-8-yl)propyl)-1,6-naphthyridin-5(6H)-one]: 50 to 80%; for `N#Cc1ccc(C2=CCN(CCCc3cc4ncccc4c(=O)[nH]3)CC2)cn1` [Example 234, 1′-(3-(5-oxo-5,6-dihydro-1,6-naphthyridin-7-yl)propyl)-1′,2′,3′,6′-tetrahydro-[3,4′-bipyridine]-6-carbonitrile]: less than 50%.
For `N#Cc1ccc(C2=CCN(CCCc3cc4ncccc4c(=O)[nH]3)CC2)nc1` [Example 235, 1′-(3-(5-oxo-5,6-dihydro-1,6-naphthyridin-7-yl)propyl)-1′,2′,3′,6′-tetrahydro-[2,4′-bipyridine]-5-carbonitrile], the inhibition at 0.001 µM is less than 50%.
For `O=c1[nH]c(CCCN2CC=C(c3ccc(F)cc3)CC2)cc2ncccc12` [Example 236, 7-(3-(4-(4-fluorophenyl)-3,6-dihydropyridin-1(2H)-yl)propyl)-1,6-naphthyridin-5(6H)-one] the value was less than 50%; for `O=c1[nH]c(CCCN2CC=C(c3ccnc(F)c3)CC2)cc2ncccc12` [Example 237, 7-(3-(2′-fluoro-3,6-dihydro-[4,4′-bipyridine]-1(2H)-yl)propyl)-1,6-naphthyridin-5(6H)-one], less than 50%; for `O=c1[nH]c(CCCN2CC=C(c3cccc(F)c3)CC2)cc2ncccc12` [Example 238, 7-(3-(4-(3-fluorophenyl)-3,6-dihydropyridin-1(2H)-yl)propyl)-1,6-naphthyridin-5(6H)-one], less than 50%.
For `N#Cc1ccc(C2=CCN(CCCc3cc4ncccc4c(=O)[nH]3)CC2)cc1` [Example 239, 4-(1-(3-(5-oxo-5,6-dihydro-1,6-naphthyridin-7-yl)propyl)-1,2,3,6-tetrahydropyridin-4-yl)benzonitrile] the value was 50 to 80%; for `O=c1[nH]c(CCCN2CC=C(c3ccncc3)CC2)cc2ncccc12` [Example 240, 7-(3-(3,6-dihydro-[4,4′-bipyridine]-1(2H)-yl)propyl)-1,6-naphthyridin-5(6H)-one], less than 50%.
